From patent publication US20100144755A1 (Glaxo Group Limited, priority 2006, published 2010)
pIC50: −log10 of the molar value. Where a name gives a salt, the structure may show the parent alone.

Columns and labels:
Recombinant human p38α [1] = target: T1, Recombinant human p38α (Homo sapiens, UniProt Q16539); assay: Fluorescence anisotropy kinase binding assay (standard and low volume); settings: for IC50: 12 nM p38α, 5 nM fluorescent ligand, 5.1 to 8.4 is stated collectively for the listed examples, read-out: pIC50, fluorescence anisotropy kinase binding assay (converted); for pIC50: no IC50 at a concentration of less than 16 uM, read-out: IC50, fluorescence anisotropy kinase binding assay
T1 construct: His; made in house
Excerpt: Fluorescence Anisotropy Kinase Binding Assay—Standard Volume
(§1) The concentration of kinase enzyme should preferably be ≧2×Kf. The concentration of fluorescent ligand required will depend on the instrumentation used, and the fluorescent and physicochemical properties. The concentration used must be lower than the concentration of kinase enzyme, and preferably less than half the kinase enzyme concentration.
The fluorescent ligand is the following compound:
which is derived from 5-[2-(4-aminomethylphenyl)-5-pyridin-4-yl-1H-imidazol-4-yl]-2-chlorophenol and rhodamine green.
Recombinant human p38α was expressed as a GST-tagged protein. To activate this protein, 3.5 μM unactivated p38α was incubated in 50 mM Tris-HCl pH 7.5, 0.1 mM EGTA, 0.1% 2-mercaptoethanol, 0.1 mM sodium vanadate, 10 mM MgAc, 0.1 mM ATP with 200 nM MBP-MKK6 DD at 30 degrees for 30 mins. Following activation p38α was re-purified and the activity assessed using a standard filter-binding assay.
(§2) Protocol: All components are dissolved in buffer of composition 62.5 mM HEPES, pH 7.5, 1.25 mM CHAPS, 1 mM DTT, 12.5 mM MgCl2 with final concentrations of 12 nM p38α and 5 nM fluorescent ligand. 30 μl of this reaction mixture is added to wells containing 1 μl of various concentrations of test compound (0.28 nM-16.6 μM final) or DMSO vehicle (3% final) in NUNC 384 well black microtitre plate and equilibrated for 30-60 mins at room temperature. Fluorescence anisotropy is read in Molecular Devices Acquest (excitation 485 nm/emission 535 nm).
Definitions: Ki=dissociation constant for inhibitor binding • Kf=dissociation constant for fluorescent ligand binding
Fluorescence Anisotropy Kinase Binding Low Volume Assay
as §1, with “2×Kf.” for “≧2×Kf.”
as §2, with “containing 0.1” for “containing 1”, “compound (0.02 nM-25” for “compound (0.28 nM-16.6”, “vehicle (1.7%” for “vehicle (3%”, “in Greiner low volume” for “in NUNC”
It is noted that there are two assay formats shown above for the Fluorescence anisotropy kinase binding assay. The only difference between these two assays is the volume used and the plate type. […] The results described herein may have been performed in either assay format and are not differentiated as to which.

[2] = test system: TNF-stimulated IL8 production by human neutrophils; assay: TNF-stimulated IL-8 production from human neutrophils; format: cell-based; settings: Neutrophil, TNF 100 ng/ml, about 20 hrs, bounds reflect the top concentration screened, for 202(c) and 120 a range over multiple runs with ends given as 'greater than';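 note: IL-8 in cell-free supernatant quantified by sandwich ELISA, inhibition calculated against a compound-free control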
Method: TNF-Stimulated IL-8 Production from Human Neutrophils
The effect of test compounds on TNF-stimulated IL8 production by human neutrophils is measured as follows. Neutrophils are prepared from blood obtained from consenting donors, using standard methods. Blood is collected in heparinized syringes and layered over histopaque (30 ml/20 ml). Following centrifugation, the red cell pellet is resuspended in PBS and purified over a dextran gradient. […] Cells are added (0.5-1 ml) to 48 well plates already containing compound at 1000× final concentration in neat DMSO or 10% DMSO in RPMI1640 with 10% FBS. TNF (final concentration 100 ng/ml) is used as the stimulus. Cells incubated for approximately 20 hrs at 37° C., 5% CO2. Levels of IL-8 in the cell free supernatant are determined by sandwich ELISA, and inhibition relative to a control with DMPO but no compound is calculated.

[3] = test system: LPS-stimulated TNFalpha production in human whole blood; assay: LPS-stimulated cytokine production in human whole blood; format: cell-based; settings: LPS 50 ng/ml final, 4 hour incubation, read-out: IC50, LPS-stimulated TNF-alpha production in human whole blood
Method: LPS-Stimulated Cytokine Production in Human Whole Blood
Assay: Test compound concentrations were prepared at 10× concentrations and LPS prepared at 1 ug/ml (final conc. of 50 ng/ml LPS) and added in 50 uL volumes to 1.5 mL eppendorf tubes. Heparinized human whole blood was obtained from healthy volunteers and was dispensed into eppendorf tubes or multiwell plates containing compounds and LPS in 0.2-0.4 mL volumes and the tubes incubated at 37 C. In some studies, compound was incubated with blood for up to 30 min prior to addition of LPS. Following a 4 hour incubation, the tubes or plates were centrifuged to remove cells and plasma was withdrawn and frozen at −80 C.
Cytokine measurement: IL-Ibeta and/or TNFalpha were quantified using a standardized ELISA, or similar technology.

Recombinant human p38α [4] = target: T1, Recombinant human p38α; assay: Time-resolved fluorescence resonance energy transfer (TR-FRET) kinase assay (standard and low volume); format: biochemical; settings: for IC50: for 97(b) and 115 a broad range over multiple runs, lower end less than 4.6, read-out: pIC50, TR-FRET p38α kinase assay (converted)
Method: Time-Resolved Fluorescence Resonance Energy Transfer Linase Standard Assay
(§3) Recombinant human p38α was expressed as a His-tagged protein. To activate this protein, 3 μM unactivated p38α was incubated in 200 mM Hepes pH 7.4, 625 mM NaCl, 1 mM DTT with 27 nM active MKK6 (Upstate), 1 mM ATP and 10 mM MgCl2 The activity of the MKK6-activated p38α was assessed using a time-resolved fluorescence resonance energy transfer (TR-FRET) assay.
Biotinylated-GST-ATF2 (residues 19-96, 400 nM final), ATP ([…]) and MgCl2 (5 mM final) in assay buffer (40 mM HEPES pH 7.4, 1 mM DTT) were added to wells containing 1 ul of various concentrations of compound or DMSO vehicle (3% final) in NUNC 384 well black plate. The reaction was initiated by the addition of MKK6-activated p38 (100 pM final) to give a total volume of 30 ul. The reaction was incubated for 120 minutes at room temperature, then terminated by the addition of 15 μl of 100 mM EDTA pH 7.4. Detection reagent (15 μl) in buffer (100 mM HEPES pH 7.4, 150 mM NaCl, 0.1% w/v BSA, 1 mM DTT) containing antiphosphothreonine-ATF2-71 polyclonal antibody (Cell Signalling Technology, Beverly Mass., USA) labelled with W-1024 europium chelate (Wallac O Y, Turku, Finland), and APC-labelled streptavidin (Prozyme, San Leandro, Calif., USA) was added and the reaction was further incubated for 60 minutes at room temperature. The degree of phosphorylation of GST-ATF2 was measured using a Packard Discovery plate reader (Perkin-Elmer Life Sciences, Pangbourne, UK) as a ratio of specific 665 nm energy transfer signal to reference europium 620 nm signal.
Time-Resolved Fluorescence Resonance Energy Transfer Kinase Low Volume Assay
as §3, with “pH7.4,” for “pH 7.4,”
Biotinylated-GST-ATF2 (residues 19-96, 400 nM final), ATP (125 μM final) and MgCl2 (5 mM final) in assay buffer (40 mM HEPES pH 7.4, 1 mM DTT) were added to wells containing 0.1 μl of various concentrations of compound or DMSO vehicle (1.7% final) in Greiner low volume 384 well black plate. The reaction was initiated by the addition of MKK6-activated p38α (100 pM final) to give a total volume of 6 μl. […] The degree of phosphorylation of GST-ATF2 was measured using a BMG Rubystar plate reader (BMG, UK) as a ratio of specific 665 nm energy transfer signal to reference europium 620 nm signal.
It is noted that there are two assay formats shown above for the Time-resolved fluorescence resonance energy transfer kinase assay. […]

[5] = test system: influx of neutrophils to the lung in LPS-challenged rats; assay: Rat LPS neutrophilia model; format: in vivo; settings: LPS aerosol, intratracheal dosing, in at least one of the range of conditions tested, significance p<0.05
Summary of the method: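 Compound given intratracheally (200 ul suspension or dry powder via microsprayer) to isoflurane-anesthetized rats 15 min–24 h before 15 min LPS aerosol (100 ug/ml). Lavage 4 h post-challenge; neutrophils from differential counts. % inhibition versus no-compound controls at a given concentration and pretreat time.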

T1 sequence (Q16539 whole entry): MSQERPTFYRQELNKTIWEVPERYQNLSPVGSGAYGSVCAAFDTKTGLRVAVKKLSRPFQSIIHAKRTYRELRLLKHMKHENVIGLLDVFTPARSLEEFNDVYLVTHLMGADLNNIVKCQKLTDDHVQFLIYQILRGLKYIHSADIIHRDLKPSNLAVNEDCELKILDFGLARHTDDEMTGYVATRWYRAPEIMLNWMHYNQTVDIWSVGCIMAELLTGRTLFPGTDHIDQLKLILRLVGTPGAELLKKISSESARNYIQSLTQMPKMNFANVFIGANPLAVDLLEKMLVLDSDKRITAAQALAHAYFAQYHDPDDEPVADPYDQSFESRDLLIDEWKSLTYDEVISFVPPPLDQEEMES

SMILES	IC50 (Recombinant human p38α [1])	pIC50 (Recombinant human p38α [1])	pIC50 [2]	pIC50 [3]	IC50 (Recombinant human p38α [4])	further results
CSc1nc(Cl)c2ccc(=O)n(-c3c(F)cccc3F)c2n1 [Example 1(a), 4-chloro-8-(2,6-difluorophenyl)-2-(methylthio)pyrido[2,3-d]pyrimidin-7(8H)-one]	> 15.8 µM	≤ 4.80	< 7.00			
Cc1ccc(NC(=O)c2cccs2)cc1-c1nc(NC2CC(C)(C)NC(C)(C)C2)nc2c1ccc(=O)n2-c1c(F)cccc1F [Example 9, N-(3-{8-(2,6-difluorophenyl)-7-oxo-2-[(2,2,6,6-tetramethyl-4-piperidinyl)amino]-7,8-dihydropyrido[2,3-d]pyrimidin-4-yl}-4-methylphenyl)-2-thiophenecarboxamide]	> 15.8 µM	≤ 4.80	< 7.00			
Cc1ccc(C(=O)NCCc2ccccc2)cc1-c1nc(NC(CO)CO)nc2c1ccc(=O)n2-c1c(F)cccc1F [Example 93, 3-(8-(2,6-difluorophenyl)-2-{[2-hydroxy-1-(hydroxymethyl)ethyl]amino}-7-oxo-7,8-dihydropyrido[2,3-d]pyrimidin-4-yl)-4-methyl-N-(2-phenylethyl)benzamide trifluoroacetate]				< 6.00		
O=C(O)c1cccc(-c2nc(NC(CO)CO)nc3c2ccc(=O)n3-c2ccc(F)cc2F)c1 [Example 96(d), 3-(8-(2,4-difluorophenyl)-2-{[2-hydroxy-1-(hydroxymethyl)ethyl]amino}-7-oxo-7,8-dihydropyrido[2,3-d]pyrimidin-4-yl)benzoic acid]	> 15.8 µM	≤ 4.80				
Cc1ccc(C(=O)O)cc1-c1nc(-n2ccnc2CN)nc2c1ccc(=O)n2-c1c(F)cccc1F [Example 97(b), 3-[2-[2-(aminomethyl)-1H-imidazol-1-yl]-8-(2,6-difluorophenyl)-7-oxo-7,8-dihydropyrido[2,3-d]pyrimidin-4-yl]-4-methylbenzoic acid trifluoroacetate]				< 6.00	≥ 0.0398 µM	
Cc1ccc(C(=O)NC(C)C)cc1-c1nc(N(C)CCN(C)C)nc2c1ccc(=O)n2-c1c(F)cccc1F [Example 100, 3-{8-(2,6-difluorophenyl)-2-[[2-(dimethylamino)ethyl](methyl)amino]-7-oxo-7,8-dihydropyrido[2,3-d]pyrimidin-4-yl}-4-methyl-N-(1-methylethyl)benzamide]				< 6.00		
Cc1ccc(C(=O)Nc2ccc(F)cc2)cc1-c1nc(N(C)CCCN(C)C)nc2c1ccc(=O)n2-c1c(F)cccc1F [Example 115, 3-{8-(2,6-difluorophenyl)-2-[[3-(dimethylamino)propyl](methyl)amino]-7-oxo-7,8-dihydropyrido[2,3-d]pyrimidin-4-yl}-N-(4-fluorophenyl)-4-methylbenzamide]					≥ 0.0398 µM	inhibition of neutrophilia [5]: statistically nonsignificant inhibition
CCN(CC)CCCNc1nc(-c2ccc(C(=O)O)cc2)c2ccc(=O)n(-c3c(F)cccc3F)c2n1 [Example 188(a), 4-[2-{[3-(diethylamino)propyl]-amino}-8-(2,6-difluorophenyl)-7-oxo-7,8-dihydropyrido[2,3-d]pyrimidin-4-yl]benzoic acid]			< 7.00		> 15.8 µM	pIC50 (Recombinant human p38α [4]; no IC50 at a concentration of less than 16 uM, read-out: IC50, TR-FRET p38α kinase assay): ≤ 4.80
